Reference: paper PMC8501045, “Addressing MRSA infection and antibacterial resistance with peptoid polymers” (Nature Communications, 2021)
Values after ≈ are worked out from the molar mass of the structure shown.

Legend:
E. faecalis 0609 = assay: MIC assay, clinical isolate; format: cell-based; conditions: Enterococcus faecalis, 0609
Protocol: (§1) MRSA (S. aureus Mu50, S. aureus Newman, S. aureus USA400, S. aureus USA300 LAC, S. aureus USA300) were obtained from Shanghai Institute of Materia Medica, Chinese Academy of Sciences. All clinically isolated Gram-positive bacteria used in this study were isolated from patients with various infections, different ages and sexes in the Shanghai Ruijin Rehabilitation Hospital. All strains were cultured in Luria-Bertani (LB) medium at 37 °C before use.
(§2) Bacteria were cultured in LB medium at 37 °C for 10 h, and then the bacterial suspension was diluted in Mueller–Hinton (MH) medium to a cell density of 2 × 10^5 colony forming units (CFU)/mL as the working suspension. The poly(Naeg)20 was serially diluted by MH medium in a 96-well plate, and an equal volume of bacterial suspension was added into each well. The final concentration of the poly(Naeg)20 was ranging from 200 to 1.56 μg/mL, and the plates were incubated at 37 °C for 9 h. Wells with inoculum and no polymer were used as the positive control; wells with only MH medium were used as the blank. The optical density (OD) in each well was measured on a Molecular Devices SpectraMax M2 precision microplate reader. The percentage of bacteria growth was calculated from1 %cellgrowth=A600polymer-A600blank/A600control-A600blank×100
(§3) The test was independently repeated at least three times.

E. faecalis 2305 = assay: MIC assay, clinical isolate; format: cell-based; conditions: Enterococcus faecalis, 2305
Protocol: as §1, §2, §3

E. faecium 0502 = assay: MIC assay, clinical isolate; format: cell-based; conditions: Enterococcus faecium, 0502
Protocol: as §1, §2, §3

E. faecium 0609 = assay: MIC assay, clinical isolate; format: cell-based; conditions: Enterococcus faecium, 0609
Protocol: as §1, §2, §3

E. faecium 0610 = assay: MIC assay, clinical isolate; format: cell-based; conditions: Enterococcus faecium, 0610
Protocol: as §1, §2, §3

E. faecium 2504 = assay: MIC assay, clinical isolate; format: cell-based; conditions: Enterococcus faecium, 2504
Protocol: as §1, §2, §3

S. agalactiae 0613 = assay: MIC assay, clinical isolate; format: cell-based; conditions: Streptococcus agalactiae, 0613
Protocol: as §1, §2, §3

S. aureus 2202 = assay: MIC assay, clinical isolate; format: cell-based; conditions: Staphylococcus aureus, 2202
Protocol: as §1, §2, §3

S. aureus 2802 = assay: MIC assay, clinical isolate; format: cell-based; conditions: Staphylococcus aureus, 2802
Protocol: as §1, §2, §3

S. aureus 2902 = assay: MIC assay, clinical isolate; format: cell-based; conditions: Staphylococcus aureus, 2902
Protocol: as §1, §2, §3

S. aureus 2904 = assay: MIC assay, clinical isolate; format: cell-based; conditions: Staphylococcus aureus, 2904
Protocol: as §1, §2, §3

S. epidermidis 0501 = assay: MIC assay, clinical isolate; format: cell-based; conditions: Staphylococcus epidermidis, 0501
Protocol: as §1, §2, §3

S. epidermidis 9397 = assay: MIC assay, clinical isolate; format: cell-based; conditions: Staphylococcus epidermidis, 9397
Protocol: as §1, §2, §3

S. haemolyticus 0202 [1] = assay: MIC assay, clinical isolate; format: cell-based; conditions: Staphylococcus haemolyticus, 0202
Protocol: as §1, §2, §3

S. haemolyticus 1107 = assay: MIC assay, clinical isolate; format: cell-based; conditions: Staphylococcus haemolyticus, 1107
Protocol: as §1, §2, §3

S. haemolyticus 1303 = assay: MIC assay, clinical isolate; format: cell-based; conditions: Staphylococcus haemolyticus, 1303
Protocol: as §1, §2, §3

S. aureus ATCC6538 = assay: Bacterial killing kinetics; format: cell-based, Staphylococcus aureus; conditions: after 4 h of treatment
S. haemolyticus 0202 [2] = assay: Mouse peritonitis model, CFU in organs, blood and IP fluid, S. haemolyticus; format: in vivo; conditions: Figure 6f
Protocol: This infection model was conducted according to the previously reported method with slight modification. Female ICR mice (21–24 g) were used for MRSA-infected peritonitis model. Mice were infected by intraperitoneal administration of 0.2 mL of S. aureus USA300 LAC in saline (7.5 × 10^8 CFU/mL) supplemented with 5% mucin. […] Once the infected mice died, peritoneal lavage was performed by injecting 3.0 mL of saline into the peritoneal cavity and massaging the abdomen. Subsequently, the abdomen was opened and peritoneal fluid was recovered from the abdominal cavity for analysis. Blood samples were collected through cardiac puncture for analysis of CFU/mL. Then, different organs including the heart, liver, spleen, lung, and kidney were removed and homogenized in 0.1% TX-100 solution. The homogenate was serially diluted for plating on LB agar. After incubation at 37 °C for 14 h, the number of colonies on the plate was counted to calculate the bacteria burden. Surviving mice were euthanized at 48 h after infection. The blood, peritoneal fluid, and organs were collected for the determination of bacterial colonies. […] For the pretreatment group, mice were sacrificed and tissues were harvested to determine the CFU at 1 h post infection.
For experiments of S. epidermidis and S. haemolyticus infections, female ICR mice (22–24 g) were rendered neutropenic by treatment with 150 and 100 mg/kg of cyclophosphamide intraperitoneally at 4 days and 1 day prior to infection. Mice were infected by intraperitoneal administration of 0.2 mL of S. epidermidis 9397 (5.1 × 10^9 CFU/mL) or S. haemolyticus 0202 (2.6 × 10^9 CFU/mL) in saline. Other experiment conditions were similar to those in MRSA peritonitis model.

## CN[C@H](CC(C)C)C(=O)N[C@H]1C(=O)N[C@@H](CC(N)=O)C(=O)N[C@H]2C(=O)N[C@H]3C(=O)N[C@H](C(=O)N[C@H](C(=O)O)c4cc(O)cc(O)c4-c4cc3ccc4O)[C@H](O)c3ccc(c(Cl)c3)Oc3cc2cc(c3O[C@@H]2O[C@H](CO)[C@@H](O)[C@H](O)[C@H]2O[C@H]2C[C@](C)(N)[C@H](O)[C@H](C)O2)Oc2ccc(cc2Cl)[C@H]1O [Vancomycin]
E. faecalis 0609
  MIC: 0.39 µg/mL (≈ 0.269 µM)
E. faecalis 2305
  MIC: 0.78 µg/mL (≈ 0.538 µM)
E. faecium 0502
  MIC: > 200 µg/mL
E. faecium 0609
  MIC: 50 µg/mL (≈ 34.5 µM)
E. faecium 0610
  MIC: 0.78 µg/mL (≈ 0.538 µM)
E. faecium 2504
  MIC: 0.78 µg/mL (≈ 0.538 µM)
S. agalactiae 0613
  MIC: 0.78 µg/mL (≈ 0.538 µM)
S. aureus 2202
  MIC: 0.78 µg/mL (≈ 0.538 µM)
S. aureus 2802
  MIC: 0.39 µg/mL (≈ 0.269 µM)
S. aureus 2902
  MIC: 0.39 µg/mL (≈ 0.269 µM)
S. aureus 2904
  MIC: 0.39 µg/mL (≈ 0.269 µM)
S. epidermidis 0501
  MIC: 0.78 µg/mL (≈ 0.538 µM)
S. epidermidis 9397
  MIC: 0.78 µg/mL (≈ 0.538 µM)
S. haemolyticus 0202 [1]
  MIC: 1.56 µg/mL (≈ 1.08 µM)
S. haemolyticus 1107
  MIC: 0.78 µg/mL (≈ 0.538 µM)
S. haemolyticus 1303
  MIC: 0.78 µg/mL (≈ 0.538 µM)
S. aureus ATCC6538
  reduction of the bacteria: about 0.3 log
S. haemolyticus 0202 [2]; individual mouse 1 of 6
  Log10(CFU/mL IP fluid): 3.226 Log10(CFU/mL)
  Log10(CFU/mL Blood): 3.398 Log10(CFU/mL)
  Log10(CFU/g Heart): 4.437 Log10(CFU/g)
  Log10(CFU/g Kidney): 4.477 Log10(CFU/g)
  Log10(CFU/g Liver): 4.477 Log10(CFU/g)
  Log10(CFU/g Lung): 5.45 Log10(CFU/g)
  Log10(CFU/g Spleen): 6.652 Log10(CFU/g)
S. haemolyticus 0202 [2]; individual mouse 2 of 6
  Log10(CFU/mL IP fluid): 4.392 Log10(CFU/mL)
  Log10(CFU/mL Blood): 3.213 Log10(CFU/mL)
  Log10(CFU/g Heart): 5.504 Log10(CFU/g)
  Log10(CFU/g Kidney): 5.326 Log10(CFU/g)
  Log10(CFU/g Liver): 5.908 Log10(CFU/g)
  Log10(CFU/g Lung): 5.572 Log10(CFU/g)
  Log10(CFU/g Spleen): 7.228 Log10(CFU/g)
S. haemolyticus 0202 [2]; individual mouse 3 of 6
  Log10(CFU/mL IP fluid): 3.853 Log10(CFU/mL)
  Log10(CFU/mL Blood): 2.602 Log10(CFU/mL)
  Log10(CFU/g Heart): 4.593 Log10(CFU/g)
  Log10(CFU/g Kidney): 5 Log10(CFU/g)
  Log10(CFU/g Liver): 4.978 Log10(CFU/g)
  Log10(CFU/g Lung): 6.099 Log10(CFU/g)
  Log10(CFU/g Spleen): 6.728 Log10(CFU/g)
S. haemolyticus 0202 [2]; individual mouse 4 of 6
  Log10(CFU/mL IP fluid): 4.647 Log10(CFU/mL)
  Log10(CFU/mL Blood): 3.336 Log10(CFU/mL)
  Log10(CFU/g Heart): 5.198 Log10(CFU/g)
  Log10(CFU/g Kidney): 5.151 Log10(CFU/g)
  Log10(CFU/g Liver): 5.097 Log10(CFU/g)
  Log10(CFU/g Lung): 5.247 Log10(CFU/g)
  Log10(CFU/g Spleen): 6.799 Log10(CFU/g)
S. haemolyticus 0202 [2]; individual mouse 5 of 6
  Log10(CFU/mL IP fluid): 4.595 Log10(CFU/mL)
  Log10(CFU/mL Blood): 2.62 Log10(CFU/mL)
  Log10(CFU/g Heart): 4.862 Log10(CFU/g)
  Log10(CFU/g Kidney): 5.103 Log10(CFU/g)
  Log10(CFU/g Liver): 5.108 Log10(CFU/g)
  Log10(CFU/g Lung): 5.56 Log10(CFU/g)
  Log10(CFU/g Spleen): 6.226 Log10(CFU/g)
S. haemolyticus 0202 [2]; individual mouse 6 of 6
  Log10(CFU/mL IP fluid): 4.235 Log10(CFU/mL)
  Log10(CFU/mL Blood): 0 Log10(CFU/mL)
  Log10(CFU/g Heart): 5.445 Log10(CFU/g)
  Log10(CFU/g Kidney): 6.713 Log10(CFU/g)
  Log10(CFU/g Liver): 5.286 Log10(CFU/g)
  Log10(CFU/g Lung): 6.002 Log10(CFU/g)
  Log10(CFU/g Spleen): 6.995 Log10(CFU/g)
